Kd and inhibition data for 17 compounds are collected here from patent US20100222396A1 (Novartis AG, priority 2009, published 2010).

The structures appear in SMILES notation.

For experiment [1], the target named is T1, human orexin 1 receptor (hOx1R) (Homo sapiens, UniProt O43613).
T1 construct: expressed in transfected cells
T1 sequence (O43613 1-425): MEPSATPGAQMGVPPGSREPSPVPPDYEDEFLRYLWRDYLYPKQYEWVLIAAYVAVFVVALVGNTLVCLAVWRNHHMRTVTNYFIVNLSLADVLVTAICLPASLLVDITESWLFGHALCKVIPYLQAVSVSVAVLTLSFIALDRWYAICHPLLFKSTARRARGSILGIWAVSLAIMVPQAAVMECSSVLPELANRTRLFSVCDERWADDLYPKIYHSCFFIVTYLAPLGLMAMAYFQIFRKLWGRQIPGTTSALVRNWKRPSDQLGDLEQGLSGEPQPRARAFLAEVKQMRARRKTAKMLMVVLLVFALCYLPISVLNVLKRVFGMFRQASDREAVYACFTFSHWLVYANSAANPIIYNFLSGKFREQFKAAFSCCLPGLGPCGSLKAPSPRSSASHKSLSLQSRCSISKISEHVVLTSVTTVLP
Briefly: Radioligand binding assay ([125I]orexin A competition), hOx1R. The settings on record: CHO or HEK cell membranes, 1 h room temperature. How it is done: (§1) For crude cell membrane preparations, cells (CHO, Chinese hamster ovary or HEK, human embryonic kidney) expressing human orexin 1 or human orexin 2 receptors, were washed with HEPES (10 mM, pH 7.5), scraped off the culture plates with the same buffer, and centrifuged at 4° C. for 5 min at 2500×g. The cell pellet was either stored at −80° C. or used directly. Before the experiments, cell membranes were re-suspended in binding assay buffer (10 mM HEPES, 0.5% (w/v) bovine serum albumin, pH 7.5) by homogenisation with a Polytron homogeniser at 50 Hz for 20 s. Cell membranes were also used as made available by commercial providers.
(§2) In initial saturation experiments (to calculate Bmax), cell homogenates (150 μl) were incubated with 25-300 pM of the radioligand ([^125I]orexin A, 50 μl), 8 concentrations in triplicates in the presence or absence Orexin A (1 μM, 50 μl) to define non specific binding. Bound radioactivity was measured, and data were analysed with the program XLFIT or Graphpad Prism. Protein concentration was determined according to the Bradford/BioRad Protein Assay Kit.
(§3) In competition experiments, cell homogenates (150 μl) were incubated in assay buffer (10 mM HEPES, pH 7.5, 0.5% (w/v) bovine serum albumin, 5 mM MgCl2, […], and tween 0.05%) for 1 h at room temperature with about […] of the radioligand ([^125I]orexin A, 2100 Ci/mmole, 50 μl), and with various concentrations of compounds of the invention (50 μl) in triplicates; non-specific binding was determined in the presence of Orexin A (1 μM). Reactions were terminated by vacuum filtration, 3 washes of ice cold wash buffer (Tris-HCl pH 7.4/10 mM, with NaCl 154 mM). Competition data is expressed in Table 1 as Kd [μM].

Experiment [2] addresses T2, human orexin 2 receptor (hOx2R) (Homo sapiens, UniProt O43614).
T2 construct: expressed in transfected cells
T2 sequence (O43614 1-444): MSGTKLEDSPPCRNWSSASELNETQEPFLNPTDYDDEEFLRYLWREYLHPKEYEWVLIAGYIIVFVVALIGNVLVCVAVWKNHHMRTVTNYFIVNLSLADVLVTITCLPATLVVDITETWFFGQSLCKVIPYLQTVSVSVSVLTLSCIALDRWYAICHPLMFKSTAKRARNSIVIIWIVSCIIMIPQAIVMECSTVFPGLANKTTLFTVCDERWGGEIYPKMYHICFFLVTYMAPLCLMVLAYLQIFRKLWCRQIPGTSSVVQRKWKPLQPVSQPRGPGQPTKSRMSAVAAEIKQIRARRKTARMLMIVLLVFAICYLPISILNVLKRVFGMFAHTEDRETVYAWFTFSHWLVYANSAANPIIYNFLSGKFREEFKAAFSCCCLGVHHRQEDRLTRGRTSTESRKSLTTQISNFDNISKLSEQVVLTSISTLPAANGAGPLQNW
Description: Radioligand binding assay ([125I]orexin A competition), hOx2R. The settings on record: CHO or HEK cell membranes, 1 h room temperature. How it is done: as §1, §2, §3

Experiment [3] addresses T1, human orexin 1 receptor (hOx1R). Briefly: Calcium accumulation in cells (FLIPR), antagonism of orexin A, hOx1R. Type of experiment: cell-based. The settings on record: for Kd: cells expressing human orexin 1 receptor, IC50 vs orexin A converted by Cheng and Prusoff correction; for inhibition at 10 µM: measured at a concentration of 10 μM of compound (cells marked ^a). In outline: (§4)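 Serum-starved receptor-expressing cells were loaded with Fluo-4-AM (2 μM) plus probenecid (0.1 mM) in HEPES buffer, pH 7.4, with 1% BSA, and Ca2+ fluorescence was read on FLIPR. Compounds (10^−9–10^−5 M) were added first, and orexin A was added one hour later to measure antagonism.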

Experiment [4] concerns the target T2, human orexin 2 receptor (hOx2R). Description: Calcium accumulation in cells (FLIPR), antagonism of orexin A, hOx2R. Type of experiment: cell-based. The settings on record: cells expressing human orexin 2 receptor; IC50 vs orexin A converted by Cheng and Prusoff correction. In outline: as §4

Broadly, the Kd is the equilibrium constant for the complex coming apart. Take `CN(C(=O)c1ccc2c(c1)OCO2)[C@H](CCNC(=O)c1ccccn1)Cc1ccc(Cl)cc1` [Example 25, Pyridine-2-carboxylic acid [(S)-3-[(benzo[1,3]dioxole-5-carbonyl)-methyl-amino]-4-(4-chloro-phenyl)-butyl]-amide]: the Kd in experiment [1] came out at 2220 nM; in experiment [2] it was 308 nM; in experiment [3], 1000 nM; in experiment [4] it was 36 nM.

Take `CN(C(=O)c1cccc2ccccc12)[C@H](CCNC(=O)c1nc2ccccc2n1C)Cc1ccc(Cl)cc1` [Example 26, 1-Methyl-1H-benzoimidazole-2-carboxylic acid {(S)-4-(4-chloro-phenyl)-3-[methyl-(naphthalene-1-carbonyl)-amino]-butyl}-amide]: the Kd in experiment [1] was 3280 nM; in experiment [2], 308 nM; in experiment [3], 122 nM; in experiment [4], 10 nM.

As to `Cc1nc(C(=O)NCC[C@H](Cc2ccccc2)N(C)C(=O)c2ccccc2)c(-c2ccccc2F)s1` [Example 27, 5-(2-Fluoro-phenyl)-2-methyl-thiazole-4-carboxylic acid [(S)-3-(benzoyl-methyl-amino)-4-phenyl-butyl]-amide], the Kd is 783 nM in experiment [1], 337 nM in experiment [2], 76 nM in experiment [3] and 11 nM in experiment [4].

For the compound `CN(C(=O)c1cccc2ccccc12)[C@H](CCNC(=O)c1ccccn1)Cc1ccc(F)cc1` [Example 28, Pyridine-2-carboxylic acid {(8)-4-(4-fluoro-phenyl)-3-[methyl-(naphthalene-1-carbonyl)-amino]-butyl}-amide], the dissociation constant (Kd) in experiment [1] was 579 nM; in experiment [2], 371 nM; in experiment [3], 28 nM; in experiment [4], 4 nM.

Regarding `CN(C(=O)c1ccc2c(c1)CCO2)[C@H](CCNC(=O)c1ccccn1)Cc1ccccc1` [Example 29, Pyridine-2-carboxylic acid {(8)-3-[(2,3-dihydro-benzofuran-5-carbonyl)-methyl-amino]-4-phenyl-butyl}-amide], the Kd in experiment [1] was 518 nM; in experiment [2], 374 nM; in experiment [3], 2190 nM; in experiment [4] it was 157 nM.

With `CN(C(=O)c1ccc2c(c1)OCO2)[C@H](CCNC(=O)c1nc2ccccc2n1C)Cc1ccccc1` [Example 31, 1-Methyl-1H-benzoimidazole-2-carboxylic acid {(S)-3-[(benzo[1,3]dioxole-5-carbonyl)-methyl-amino]-4-phenyl-butyl}-amide], the Kd in experiment [1] was 164 nM; in experiment [2], 410 nM; in experiment [3] it was 57 nM; in experiment [4] it was 43 nM.

In general, inhibition refers to the change of the read-out against control, counted positive when it falls. With `CN(C(=O)c1ccccc1)[C@H](CCNC(=O)c1cccc2c1OCO2)Cc1ccccc1` [Example 32, Benzo[1,3]dioxole-4-carboxylic acid [(S)-3-(benzoyl-methyl-amino)-4-phenyl-butyl]-amide], the dissociation constant (Kd) in experiment [1] was above 10000 nM; in experiment [2], 435 nM; in experiment [4] it was 67 nM. Also, the inhibition at 10 µM in experiment [3] was 24%.

With `Cc1nc2sccn2c1C(=O)NCC[C@H](Cc1ccccc1)N(C)C(=O)c1ccccc1` [Example 33, 6-Methyl-imidazo[2,1-b]thiazole-5-carboxylic acid [(S)-3-(benzoyl-methyl-amino)-4-phenyl-butyl]-amide], the dissociation constant Kd in experiment [1] amounted to 5730 nM; in experiment [2] it was 450 nM; in experiment [3] it was 1960 nM; in experiment [4], 76 nM.

Turning to `CN(C(=O)c1cc(F)cc(F)c1)[C@H](CCNC(=O)c1ccccn1)Cc1ccccc1` [Example 34, Pyridine-2-carboxylic acid {(S)-3-[(3,5-difluoro-benzoyl)-methyl-amino]-4-phenyl-butyl}-amide], the dissociation constant Kd in experiment [1] was 253 nM; in experiment [2], 466 nM; in experiment [3], 731 nM; in experiment [4], 558 nM.

`CN(C(=O)c1cccc2ccccc12)[C@H](CCNC(=O)c1ccccn1)Cc1ccc(Cl)cc1` [Example 35, Pyridine-2-carboxylic acid {(S)-4-(4-chloro-phenyl)-3-[methyl-(naphthalene-1-carbonyl)-amino]-butyl}-amide]: the Kd in experiment [1] came out at 1330 nM; in experiment [2] it was 468 nM; in experiment [3] it was 80 nM; in experiment [4], 9 nM.

On to `CN(C(=O)c1cccc2ccn(C)c12)[C@H](CCNC(=O)c1ccccn1)Cc1ccccc1` [Example 36, 1-Methyl-1H-indole-7-carboxylic acid {(S)-1-benzyl-3-[(pyridine-2-carbonyl)-amino]-propyl}-methyl-amide], for which the results for the Kd in experiment [1], in experiment [2] and in experiment [4] were 853 nM, 468 nM and 565 nM, respectively. The inhibition at 10 µM in experiment [3] stood at 37%.

For `CN(C(=O)c1ccccc1)[C@H](CCNC(=O)c1ccccn1)Cc1ccccc1` [Example 37, Pyridine-2-carboxylic acid [(S)-3-(benzoyl-methyl-amino)-4-phenyl-butyl]-amide], the dissociation constant (Kd) in experiment [1] was found to be 358 nM; in experiment [2], 479 nM; in experiment [3] it was 836 nM; in experiment [4] it was 440 nM.

As for `CN(C(=O)c1cccc2cc[nH]c12)[C@H](CCNC(=O)c1ccccn1)Cc1ccccc1` [Example 38, 1H-Indole-7-carboxylic acid {(S)-1-benzyl-3-[(pyridine-2-carbonyl)-amino]-propyl}-methyl-amide], the equilibrium dissociation constant (Kd) in experiment [1] came to 86 nM; in experiment [2], 590 nM; in experiment [3], 35 nM; in experiment [4], 162 nM.

With `CCCCC(=O)NCCC(Cc1ccccc1)N(C)C(=O)c1cc(C(F)(F)F)cc(C(F)(F)F)c1` (centres unmarked) [Example 39, N-(1-Benzyl-3-pentanoylamino-propyl)-N-methyl-3,5-bis-trifluoromethyl-benzamide], the values for the equilibrium dissociation constant (Kd) in experiment [1], in experiment [2] and in experiment [4] were above 10000 nM, 610 nM and 419 nM, respectively. Further, the inhibition at 10 µM in experiment [3] was 0%.

In the case of `CN(C(=O)c1cccc2c1ccn2C)[C@H](CCNC(=O)c1ccccn1)Cc1ccccc1` [Example 40, 1-Methyl-1H-indole-4-carboxylic acid {(S)-1-benzyl-3-[(pyridine-2-carbonyl)-amino]-propyl}-methyl-amide], the dissociation constant (Kd) worked out at 125 nM in experiment [1], 619 nM in experiment [2], 193 nM in experiment [3] and 221 nM in experiment [4].

As to `COc1cc(OC)cc(C(=O)N(C)[C@H](CCNC(=O)c2ccccn2)Cc2ccccc2)c1` [Example 41, Pyridine-2-carboxylic acid {(S)-3-[(3,5-dimethoxy-benzoyl)-methyl-amino]-4-phenyl-butyl}-amide], the Kd was 1730 nM in experiment [1], 484 nM in experiment [2], 1600 nM in experiment [3] and 196 nM in experiment [4].

`COc1ccc(C(=O)N(C)[C@H](CCNC(=O)c2ccccn2)Cc2ccccc2)cc1` [Example 42, Pyridine-2-carboxylic acid {(S)-3-[(4-methoxy-benzoyl)-methyl-amino]-4-phenyl-butyl}-amide]: the Kd in experiment [1] was determined as 1730 nM; in experiment [2] it was 688 nM; in experiment [3], 909 nM; in experiment [4], 826 nM.
